# Results reported in US4957735A, “Target-sensitive immunoliposomes- preparation and characterization” (The University of Tennessee Research Corporation, priority 1987, dated 1990).
# Like-named read-outs stand apart in the source and are kept apart here.
# Columns and labels:
# HSV [1] = experiment: Efficacy in inhibiting HSV replication in L929 cells (virus yield, TCID50 assay); format: cell-based, HSV-1, HF strain; conditions: HSV-infected L929 cells; for free drug amount required for comparable antiviral activity relative to TS immunoliposome encapsulated AraC: FIG. 7B
# Method: The HF strain of HSV-1 was propagated on Hep-2 cell. After 3 cycles of freeze and thawing of the virus infected cells, the virus released were isolated from the supernatant after palleting the cell debris at 1000 g for 10 min. These virus stock contained 1×10^8 pfu/ml and were stored in -70° C.
# (§1) Inhibitors were present throughout the assay. […] At 6 hr. […] At 42 hr.
# [2] = L929 cell toxicity assay ([3H]dT incorporation); conditions: mouse, l929 cells
# Method: (§2) As a measure of cytotoxicity, the drug concentration required to inhibit 50% of [^3 H]dT incorporation 42 hr. later (CD50) was determined.
# (§3) PI. […] At 42 hr. PI, the supernatant of the L929 cells was collected and titered for the virus yield. The toxicity of the drug on the general cell population was monitored by [^3 H]dT incorporation since both AraC and ACV inhibit the DNA synthesis.
# (§4) L929 cells at 75-80% confluency in 96-well Coster plates were infected with 0.1 multiplicity of infection (MOI) in McCoy's medium with 2% CS for 1 hr. Then the infection medium was removed and replaced with McCoy's medium containing 10% CS. For the target sensitivity assay (see below), L929 cells were grown in 35-mm six-well Linbro plates and a similar procedure was used to infect the L929 cell with various concentration of HSV, ranging from 0-10 MOI.
# (§5) HSV-infected L929 cells in 7-mm 96-well plates were used in these experiments and each experiment was performed in quadruplicate. At 3 hr. post infection (PI), the growth medium of infected or uninfected cell was removed, and replaced with 180 micro-l of either liposome-entrapped or free drug AraC or ACV containing medium.
# (§6) In the experiments where nucleoside-transport inhibitors were used, the inhibitors were added at 30 min. prior to the AraC-entrapped liposome addition. Inhibitors were present throughout the assay. For the control experiments, the infection medium was replaced with the fresh growth medium. At 6 hr. PI, 1 micro-Ci of [^3 H]dT was added in 20 micro-l for cytotoxicity assay (see below). Then incubation continued at 37° C. in a CO2 incubator. At 42 hr. PI, the growth medium was removed and immediately titered for the virus yield using the 50% tissue culture infective dose (TCID50) assay using Vero cells. The TCID50 assay was done in quadruplicates and the results were expressed in average ±S.D.
# (§7) Cytotoxicity of the L929 cells was determined by 20 labeling the cells at 6 hr. PI with [3H]dT. At 42 hr. PI, the growth medium was removed and the cells were washed with cold PBS for a total of three times. Then the DNA was precipitated with 5% trichloroacetic acid (TCA) at 4° C. After two cycles of 2 hr. incubation with fresh TCA, the precipitates at the bottom of the plates were washed one more time with 200 micro-l of fresh TCA. Finally, the precipitates were redissolved and dequenched with 1N NaOH overnight. The solubilized TCA precipitates were counted for tritium radioactivity. Data presented were the average ±S.D. of the quadruplicates.
# L929 cells = experiment: L929 cell toxicity assay ([3H]dT incorporation); conditions: for CD50 (drug concentration required to inhibit 50% of [3H]dT incorporation): 42 hr.
# Method: as §2, §3, §4, §5, §6, §7
# [3] = molecular target: nucleoside transport system; conditions: cited from earlier work
# HSV [4] = experiment: Repression of TS immunoliposome mediated therapeutic effect by nucleoside transport inhibitors (HSV yield, TCID50 assay); format: cell-based, HSV-1, HF strain; conditions: for repression of therapeutic effect of AraC-encapsulated TS immunoliposomes: Table II; for Log[HSV], with liposome: 0.1 microg/ml AraC in TS immunoliposomes
# Method: While not wishing to be bound by theory, it is believed that the surface deposition of TS immunoliposomes was followed by transport of liposome-released drugs into the cytosol via cellular nucleoside transporters. To test this hypothesis, the effect on virus replication of two nucleoside transport inhibitors, p-nitrothiobenzylinosine, and dipyridamole were investigated.
# PI was determined using the TCID50 assay described in Example 14
# ^b HSV infected cells were treated with or without 0.1 microg/ml
# (ug/ml) of AraC encapsulated in the TS immunoliposomes.
# as §1
compound,measurement,setting,value
"Nc1nc2c(ncn2COCCO)c(=O)[nH]1 [ACV, acycloguanosine]",EC50,"HSV [1]; Human alphaherpesvirus 1, 42 hr. PI, FIG. 8, read-out: 50% effective dose (ED50), virus inhibition",1.1 µg/mL
same,CC50 at 42 h,[2],0.0125 µg/mL
same,CD50 (drug concentration required to inhibit 50% of [3H]dT incorporation),L929 cells,12.5 ng/mL
"Nc1ccn([C@@H]2O[C@H](CO)[C@@H](O)[C@@H]2O)c(=O)n1 [AraC, cytosine-beta-D-arabinoside]",inhibition of virus replication,HSV [1],only a marginal effect on virus replication
same,free drug amount required for comparable antiviral activity relative to TS immunoliposome encapsulated AraC,HSV [1],at least 1000 fold
same,free drug amount required for comparable antiviral activity relative to TS immunoliposome encapsulated AraC,HSV [1]; listed as free AraC,≥ 1000 fold
same,CC50 at 42 h,[2],0.0003 µg/mL
same,CD50 (drug concentration required to inhibit 50% of [3H]dT incorporation),L929 cells,0.3 ng/mL
same,cytotoxicity,L929 cells; HSV-infected / host L929 cells,cytotoxic to infected cells
same,cytotoxicity to uninfected cells,"L929 cells; uninfected control cells, [3H]dT incorporation",cytotoxic
"O=[N+]([O-])c1ccc(CSc2ncnc3c2ncn3[C@@H]2O[C@H](CO)[C@@H](O)[C@H]2O)cc1 [p-Nitrothiobenzylinosine, S-(p-Nitrobenzyl)-6-thioinosine]",Ki,[3]; competitive inhibitor,1 nM
same,repression of therapeutic effect of AraC-encapsulated TS immunoliposomes,HSV [4],concentration dependent
same,Log[HSV] Diff. (with vs without liposome),HSV [4]; inhibitor 12.5 nM,2.3
same,"Log[HSV], without liposome",HSV [4]; inhibitor 12.5 nM,5.1 ± 0.9
same,"Log[HSV], with liposome",HSV [4]; inhibitor 12.5 nM,2.8 ± 0.8
same,Log[HSV] Diff. (with vs without liposome),HSV [4]; inhibitor 100.0 nM,0.8
same,"Log[HSV], without liposome",HSV [4]; inhibitor 100.0 nM,4.6 ± 0.2
same,"Log[HSV], with liposome",HSV [4]; inhibitor 100.0 nM,3.8 ± 0.4
OCCN(CCO)c1nc(N2CCCCC2)c2nc(N(CCO)CCO)nc(N3CCCCC3)c2n1 [Dipyridamole],Ki,[3]; noncompetitive inhibitor,3000 nM
same,repression of therapeutic effect of AraC-encapsulated TS immunoliposomes,HSV [4],concentration dependent
same,Log[HSV] Diff. (with vs without liposome),HSV [4]; inhibitor 1.4 uM,1.6
same,"Log[HSV], without liposome",HSV [4]; inhibitor 1.4 uM,5.3 ± 0.3
same,"Log[HSV], with liposome",HSV [4]; inhibitor 1.4 uM,3.7 ± 0.3
same,Log[HSV] Diff. (with vs without liposome),HSV [4]; inhibitor 11.1 uM,1.4
same,"Log[HSV], without liposome",HSV [4]; inhibitor 11.1 uM,4.8 ± 0.3
same,"Log[HSV], with liposome",HSV [4]; inhibitor 11.1 uM,3.4 ± 0.4
